Assay results as given in patent US7619076B2, “Synthetic compounds useful as nodulation agents of leguminous plants and preparation processes thereof” (Bayer Cropscience S.A., priority 2003, dated 2009).
“Also recorded” adds a separate entry of the source.

What was measured:
alfalfa = test: Nodulation tests on alfalfa (induction of the formation of root nodules); assay type: in vivo; details: alfalfa plantlets; for nodulation activity relative to the benzamide derivative 3: FIG. 2-4
Description: The sulfated products are tested on alfalfa for induction of the formation of root nodules, and on the model legume Medicago truncatula for induction of the expression of a symbiotic gene coding for an early nodulin. Alfalfa plantlets are grown under axenic conditions in test tubes on a nitrogen-poor agar medium (Demont-Caulet et al., Plant Physiol., 120, 83-92, 1999). Untreated plantlets serve as control. Natural Nod or synthetic LCO factors are added at the concentrations indicated.

MtENOD11::GUSA = test: Induction of early nodulin ENOD11 transcription, MtENOD11::GUSA reporter, wild-type Jemalong plants; assay type: in vivo, Medicago truncatula; details: 6 hours LCO treatment, X-Gluc blue roots counted, FIG. 5
Description: (§1) These tests are performed to determine whether the synthetic LCOs induce symbiotic responses by activation on the same signal transduction pathway as the natural Nod factors. The tests are performed on the model legume Medicago truncatula. […] The compound that serves as reference is the sulfated tetramer 12 acylated with C16:2Δ2E,9Z chain, which is an analog of the natural Nod factor. The control is the plant cultivated in the absence of LCO.
(§2) A new gene of Medicago truncatula, MtENOD11, coding for an RPRP (Repetitive proline-rich protein), and transcribed during the first steps of infection of nodulation on the nodule roots and tissues was identified (Journet et al. Mol. Plant-Microbe Interact., 14, 737-748, 2001). Using the transgenic Medicago truncatula plant expressing the fusion MtENOD11::GUSA, it is possible to determine whether a Nod factor analog added to the culture medium of the plant has induced transcription of the ENOD11 gene.
(§3) For the ENOD11 transcription tests, a Fahraeus medium is used as for the modulation tests, but without agar. The seedlings are placed on paper in pockets containing the culture medium. […] The number of roots giving a characteristic blue response is then counted.

[1] = test system: MtENOD11::GUS in plant bearing a mutation in the DMI1 gene; test: Induction of early nodulin ENOD11 transcription, MtENOD11::GUS reporter, plants bearing a mutation in the DMI1 gene; assay type: in vivo, Medicago truncatula; details: DMI1 mutant plants, 6 hours LCO treatment, X-Gluc
Description: as §1, §2, §3

Lotus corniculatus = test: Root hair deformation assay on Lotus corniculatus; assay type: in vivo; set-up: key to Root hair deformation (Had) response: The responses were classified “+” when the proportion of Had+ was significantly higher (at the probability level P=0.05) among the treated plants compared with the untreated control; details: for Root hair deformation (Had) response: 15 plants, 16 hr incubation
Description: Seeds of Lotus corniculatus (cv Rodeo) were sterilized. Germinated seeds with rootlets about 1 cm long were aseptically transferred onto Farhaeus soft agar plates. Plates were sealed with Parafilm and placed vertically for two days in a plant growth chamber (at 25° C., with a 16-hr light period, a relative humidity of 75%, OsramVFluora L 77 as the type of light, and light intensity at the level of the top of the plates of 30 μE.m-2.s-1) to allow plant growth and root hair development. Then 2 ml of a Nod factor derivative sterile solution was poured to cover the Lotus root system, and after 30 mm, excess liquid was removed. A further incubation was performed for 16 hr in the plant growth chamber. The roots of the five plants were transferred between slide and cover slip and observed by bright field microscopy after staining by methylene blue.
Hair deformation (Had) activity was estimated by a limit dilution method. Nod factor derivatives were applied at concentrations ranging from 10^-7 M to 10-11 M. The activity of two DP5 chitin derivatives were compared, the soybean Nod factor and its benzoylated analog 10. Both compounds were O-fucosylated at the reducing end, but differed by the N-substitution on the terminal non-reducing glucosamine residue, either C18:1 N-acylated like the soybean Nod factor or N-benzoylated. Each compound was dissolved in water/ethanol 50/50; 0,01% Chaps was added at a concentration of 1 mM. These stock solutions were then diluted in water. […] The statistical significance (at the P=0.05) of the proportion of <<+>> responses was calculated using the ratio comparisons based on the Fisher's <<Exact>> test (SAS software). Experiments were carried out twice.
Fifteen plants were used for each treatment and each dilution. Sixty six untreated control plants were used to estimate the intrinsic plant variability for the Hair deformation character. […] Data were analysed using the Fisher's “Exact” test.

**Q.** CCCCCC/C=C\CCCOc1cccc(C(=O)N[C@H]2[C@H](O[C@H]3[C@H](O)[C@@H](NC(C)=O)[C@H](O[C@H]4[C@H](O)[C@@H](NC(C)=O)[C@H](O[C@H]5[C@H](O)[C@@H](NC(C)=O)C(O)O[C@@H]5COS(=O)(=O)[O-])O[C@@H]4CO)O[C@@H]3CO)O[C@H](CO)[C@@H](O)[C@@H]2O)c1.[Na+] (stereo partly drawn) [compound 3, 2-acetamido-4-O-{2-acetamido-4-O-[2-acetamido-2-deoxy-4-O-(2-deoxy-2-(N-3-(undec-4Z-enyloxy)benzoyl)amino-β-D-glucopyranosyl)-β-D-glucopyranosyl]-2-deoxy-β-D-glucopyranosyl}-2-deoxy-6-O-sulfo-D-glucopyranose, sodium salt] was tested. Which “nodulation activity on alfalfa” value (alfalfa; axenic, nitrogen-poor agar medium, result in words, sodium salt) did it give?
**A.** advantageous activity; also recorded: most active synthetic compound

**Q.** And the “nodulation activity relative to the sulfated tetramer 11 acylated with the reference C16:1Δ9Z chain” value (alfalfa; FIG. 1)?
**A.** similar

**Q.** And the “ENOD11 transcription, times less active than the reference compound, the acylated tetramer 12” value (MtENOD11::GUSA)?
**A.** approximately 10 times

**Q.** And the “ENOD11::GUS response in plants bearing the DMI1 mutation” value [1]?
**A.** does not induce any response

**Q.** For CCCCCC/C=C\CCCOc1cccc(CN[C@H]2[C@H](O[C@H]3[C@H](O)[C@@H](NC(C)=O)[C@H](O[C@H]4[C@H](O)[C@@H](NC(C)=O)[C@H](O[C@H]5[C@H](O)[C@@H](NC(C)=O)C(O)O[C@@H]5COS(=O)(=O)[O-])O[C@@H]4CO)O[C@@H]3CO)O[C@H](CO)[C@@H](O)[C@@H]2O)c1.[Na+] (stereo partly drawn) [compound 4, 2-acetamido 4-O-{2-acetamido-4-O-[2-acetamido-2-deoxy-4-O-(2-deoxy-2-(N-3-(undec-4Z-enyloxy)benzyl)amino-β-D-glucopyranosyl)-β-D-glucopyranosyl]-2-deoxy-β-D-glucopyranosyl}-2-deoxy-6-O-sulfo-D-glucopyranose, sodium salt], which “nodulation activity relative to the benzamide derivative 3” value (alfalfa) is on record?
**A.** moderate activity

**Q.** For CCCCCC/C=C\CCCOc1cccc(CN(C(C)=O)[C@H]2[C@H](O[C@H]3[C@H](O)[C@@H](NC(C)=O)[C@H](O[C@H]4[C@H](O)[C@@H](NC(C)=O)[C@H](O[C@H]5[C@H](O)[C@@H](NC(C)=O)C(O)O[C@@H]5COS(=O)(=O)[O-])O[C@@H]4CO)O[C@@H]3CO)O[C@H](CO)[C@@H](O)[C@@H]2O)c1.[Na+] (stereo partly drawn) [compound 5, 2-acetamido-4-O-{2-acetamido-4-O-[2-acetamido-2-deoxy-4-O-(2-deoxy-2-(N-3-(undec-4Z-enyloxy)benzyl)acetamido-β-D-glucopyranosyl)-β-D-glucopyranosyl]-2-deoxy-β-D-glucopyranosyl}-2-deoxy-6-O-sulfo-D-glucopyranose, sodium salt], which “nodulation activity relative to the benzamide derivative 3” value (alfalfa) is on record?
**A.** lower

**Q.** With CCCCCCC#CCCCOc1cccc(C(=O)N[C@H]2[C@H](O[C@H]3[C@H](O)[C@@H](NC(C)=O)[C@H](O[C@H]4[C@H](O)[C@@H](NC(C)=O)[C@H](O[C@H]5[C@H](O)[C@@H](NC(C)=O)C(O)O[C@@H]5COS(=O)(=O)[O-])O[C@@H]4CO)O[C@@H]3CO)O[C@H](CO)[C@@H](O)[C@@H]2O)c1.[Na+] (stereo partly drawn) [compound 7, 2-acetamido-4-O-{2-acetamido-4-O-[2-acetamido-2-deoxy-4-O-(2-deoxy-2-(N-3-(undec-4Z-ynyloxy)benzoyl)amino-β-D-glucopyranosyl)-β-D-glucopyranosyl]-2-deoxy-β-D-glucopyranosyl}-2-deoxy-6-O-sulfo-D-glucopyranose, sodium salt] as the molecule, how does the “nodulation activity relative to the benzamide derivative 3” value (alfalfa) read?
**A.** comparable

**Q.** Which “Root hair deformation (Had) response” value (Lotus corniculatus; 10^−7 M) does the source give for CCCCCC/C=C\CCCOc1cccc(C(=O)NC2C(O)[C@H](O)C(CO)O[C@H]2O[C@@H]2C(CO)O[C@@H](O[C@@H]3C(CO)O[C@@H](O[C@@H]4C(CO)O[C@@H](O[C@@H]5C(CO[C@@H]6OC(C)[C@@H](O)C(O)C6O)OC(O)C(NC(C)=O)C5O)C(NC(C)=O)C4O)C(NC(C)=O)C3O)C(NC(C)=O)C2O)c1 (stereo partly drawn) [compound 10, 2-acetamido-4-O-[2-acetamido-4-O-{2-acetamido-4-O-[2-acetamido-2-deoxy-4-O-(2-deoxy-2-(N-3-(undec-4Z-enyloxy)benzoyl)amino-β-D-glucopyranosyl)-β-D-glucopyranosy]-2-deoxy-β-D-glucopyranosyl}-2-deoxy-β-D-glucopyranosyl]-2-deoxy-6-O-(-α-L-fucopyranosyl)-D-glucopyranose] here?
**A.** +

**Q.** And the “Root hair deformation (Had) response” value (Lotus corniculatus; 10^−8 M)?
**A.** +

**Q.** What about the “Root hair deformation (Had) response” value (Lotus corniculatus; 10^−9 M) of the same molecule?
**A.** +

**Q.** And the “concentration at which activity is significant in the root hair bioassay” value (Lotus corniculatus; limit dilution method)?
**A.** nanomolar

**Q.** What about the “activity on the Lotus corniculatus root hair bioassay” value (Lotus corniculatus; result in words) of the same molecule?
**A.** high activity
